The values that follow come from patent publication US6291677A, “Compounds having activity as inhibitors of cytochrome P450RAI” (Allergan Sales, Inc., priority 2000, dated 2001).

Series [1] has as its target T1, RARα (Homo sapiens, UniProt P10276).
T1 sequence (P10276 1-462): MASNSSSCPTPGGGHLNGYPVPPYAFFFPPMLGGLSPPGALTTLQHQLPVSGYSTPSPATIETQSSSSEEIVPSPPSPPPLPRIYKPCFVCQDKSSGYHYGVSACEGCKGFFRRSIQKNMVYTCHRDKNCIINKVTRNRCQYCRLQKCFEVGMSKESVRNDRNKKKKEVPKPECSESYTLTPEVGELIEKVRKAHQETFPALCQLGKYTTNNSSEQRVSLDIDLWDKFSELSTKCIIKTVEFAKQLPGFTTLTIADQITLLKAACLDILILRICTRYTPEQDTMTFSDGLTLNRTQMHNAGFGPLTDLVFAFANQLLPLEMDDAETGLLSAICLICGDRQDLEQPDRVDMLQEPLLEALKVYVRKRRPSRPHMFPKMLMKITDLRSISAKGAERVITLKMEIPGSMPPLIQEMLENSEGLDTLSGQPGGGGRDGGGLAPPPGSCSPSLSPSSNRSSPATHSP
Nature of the series: ligand binding assay, RARα. To be noted: read-out: Kd RAR α.
Text: Assays described below measure the ability of a compound to bind to, and/or activate various retinoid receptor subtypes. […] In the below described assays the ability of the compounds to bind to RARα, RARβ, RARγ,RXRα, RXRβ and RXRγ receptors, and the ability or inability of the compounds to activate transcription of a reporter gene through these receptor subtypes can be tested.

Series [2] relates to skin of hairless mice. Nature of the series: topical skin irritation test in hairless mice. In kind it is in vivo, female hairless mice (Crl:SKH1-hrBR). To be noted: once daily days 1 through 5, mean±SD. The source says: Mice were housed individually throughout the dosing period.
Doses are disclosed as nmol/25 g.
The grading scale used is as follows:
Values can range from 0-9.
Values can range from 0-8.

Series [3] deals with RARβ. Nature of the series: chimeric receptor transactivation assay, RARβ. The format is cell-based. To be noted: unit assumed. The source says: (§1) Assays described below measure the ability of a compound to bind to, and/or activate various retinoid receptor subtypes. When in these assays a compound binds to a given receptor subtype and activates the transcription of a reporter gene through that subtype, then the compound is considered an agonist of that receptor subtype. […] In the below described assays the ability of the compounds to bind to RARα, RARβ, RARγ,RXRα, RXRβ and RXRγ receptors, and the ability or inability of the compounds to activate transcription of a reporter gene through these receptor subtypes can be tested.
(§2) The results obtained in this assay are expressed in EC50 numbers, as they are also in the chimeric receptor transactivation assay. The results of ligand binding assay are expressed in Kd numbers.

Series [4] has as its system skin. To be noted: humans; topical ATRA, oral 13-cis RA and etretinate; cited from earlier work.
For series [5], the target named is T2, P450RAI-1 (Homo sapiens, UniProt O43174).
T2 sequence (O43174 1-497): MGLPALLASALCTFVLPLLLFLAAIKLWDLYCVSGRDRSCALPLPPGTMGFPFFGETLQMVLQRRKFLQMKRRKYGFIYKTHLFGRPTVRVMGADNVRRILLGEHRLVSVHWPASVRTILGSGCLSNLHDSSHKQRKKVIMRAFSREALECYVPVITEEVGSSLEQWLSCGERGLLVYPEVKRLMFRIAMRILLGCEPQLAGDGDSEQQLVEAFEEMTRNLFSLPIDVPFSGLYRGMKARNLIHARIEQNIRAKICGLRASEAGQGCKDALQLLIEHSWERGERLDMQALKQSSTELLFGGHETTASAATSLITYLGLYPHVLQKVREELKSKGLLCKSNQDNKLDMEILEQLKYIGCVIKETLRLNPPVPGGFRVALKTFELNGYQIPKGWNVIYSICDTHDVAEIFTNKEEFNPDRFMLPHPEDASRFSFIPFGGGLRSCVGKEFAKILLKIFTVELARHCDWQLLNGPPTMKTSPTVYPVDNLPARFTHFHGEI
Nature of the series: cell-based. To be noted: intact HeLa, P450RAI-1 stably transfected, [3H]-RA, 3 hours at 37° C; read-out: P450RAI INHIBITION DATA INTACT HELA IC50. As for the experimental part: FIG. 1 is a schematic representation of the P450RAI cell based assay utilized to evaluate the ability of the compounds of the invention to inhibit the Cytochrome P450RAI enzyme.
P450RAI-1 Cell-Based Inhibitor Assay:
P450RAI-1 stably transfected HeLa cells are maintained in […] tissue culture dishes in Modified Eagle's Medium (MEM) containing 10% Fetal Bovine Serum (FBS) and 100 μg/ml hygromycin. Exponentially growing cells are harvested by incubating in trypsin. Cells are then washed with 1× Phosphate Buffered Saline (PBS) and plated in a 48-well plate at 5×10^5 cells in 0.2 ml MEM medium containing 10% FBS and 0.05 μCi [^3 H]-RA in the presence or absence of increasing concentrations of the test compounds. The compounds are diluted in 100% DMSO and then added in triplicate wells at either 10, 1 or 0.1 μM final concentration. As a positive control for RA metabolism inhibition, cells are also incubated with ketoconazole at 100, 10 and 1 μM. Cell are incubated for 3 hours at 37° C. […] The water soluble radioactivity is quantified using a β-scintillationcounter. IC50 values represent the concentration of inhibitor required to inhibit all-trans-RA metabolism by 50 percent and are derived manually from log-transformed data.

Series [6] concerns RARα. The experiment in a line: chimeric receptor transactivation assay, RARα. The format is cell-based. To be noted: unit assumed.
Text: as §1, §2

Series [7] relates to RARγ. The experiment in a line: chimeric receptor transactivation assay, RARγ. The format is cell-based. To be noted: unit assumed.
Text: as §1, §2

Series [8] has as its system psoriasis. To be noted: treatment with liarozole; cited from earlier work.

For the compound `CC1(C)CC(C)(C)c2cc(C#Cc3ccc(CC(=O)O)c(F)c3)cc(C3CC3)c2O1` [Compound 38, [4-(8-Cyclopropyl-2,2,4,4-tetramethyl-chroman-6-yl-ethynyl)-2-fluorophenyl]acetic acid], the Kd in series [1] is 10 µM. Moreover, the “Cutaneous Toxicity Score (Blackjack Score)” value is on record as 1 ± 1 in series [2] (100 nmole) and 10 ± 1 in series [2] (1000 nmole).
Regarding `CN(C1CC1)C1CCC(C)(C)c2cc(C#Cc3ccc(CC(=O)O)cc3)ccc21` (stereo not drawn) [Compound 8, 4-[(5-(Cyclopropyl-methyl-amino)-8,8-dimethyl-5,6,7,8-tetrahydro-naphthalene-2-yl-ethynyl)-phenyl]-acetic acid], in series [3], the (EFFICACY) RAR β was found to be 96%. The dissociation constant (Kd) in series [1] came out at 10 µM. Moreover, the “Cutaneous Toxicity Score (Blackjack Score)” value in series [2] (100 nmole) worked out at 5 ± 2; in series [2] (300 nmole), 8 ± 3; in series [2] (1000 nmole) it was 12 ± 1.
Take `CC1=C(/C=C/C(C)=C/C=C/C(C)=C/C(=O)O)C(C)(C)CCC1` [all-trans-retinoic acid]: the skin irritation entry in series [4] is recorded as “substantial skin irritation in humans”.
Take `CCOC(=O)/C=C(C)/C=C/C=C(C)/C=C/c1c(C)cc(OC)c(C)c1C` [etretinate]: the skin irritation entry in series [4] is “substantial skin irritation in humans”.
Regarding `Cc1cc(C#Cc2ccc(CC(=O)O)cc2)ccc1Cn1ccnc1` [Compound 121, [4-(4-Imidazol-1-yl-methyl-3-methyl-phenylethynyl)-phenyl]-acetic acid], the IC50 in series [5] worked out at 0.18 µM.
The same measure, in the same setting: the same measure for `CC(C)N(C)C1CCC(C)(C)c2cc(C#Cc3ccc(C(=O)O)cc3)ccc21` (stereo not drawn) [Compound 26]: 10 µM; for `CC1(C)CC(C)(C)c2cc(C#Cc3ccc(CC(=O)O)c(F)c3)ccc2O1` [Compound 32, [2-Fluoro-4-(2,2,4,4-tetramethyl-chroman-6-yl-ethynyl)phenyl]acetic acid]: 0.13 µM.
`CC1=C(/C=C/C(C)=C/C=C/C(C)=C\C(=O)O)C(C)(C)CCC1` [13-cis RA]: in series [4], the skin irritation entry is “substantial skin irritation in humans”.
`Cc1cc(C#Cc2ccc(C(=O)O)cc2)ccc1C1(OCC(C)(C)C)CC1` [Compound 89, 4-[4-[1-(2,2-Dimethylpropyloxy)-cyclopropyl]-3-methyl-phenylethynyl]-benzoic acid] showed a (EFFICACY) RAR α in series [6] of 20%. The (EFFICACY) RAR β in series [3] came to 50%. The (EFFICACY) RAR γ in series [7] worked out at 46%.
For the compound `Clc1cccc(C(c2ccc3[nH]cnc3c2)n2ccnc2)c1` (stereo not drawn) [liarozole], in series [8], the “retinoid-like effects, amelioration of psoriasis” value was “effects similar to treatment by retinoids, for example amelioration of psoriasis”.
`CCCNC1(c2ccc(C#Cc3ccc(C(=O)O)cc3)cc2)CC1` [Compound 108, 4-[4-(1-Propylamino-cyclopropyl)-phenylethynyl]-benzoic acid] showed a (EFFICACY) RAR α in series [6] of 15%. In series [3], this compound showed a (EFFICACY) RAR β of 36%. In addition, the (EFFICACY) RAR γ in series [7] was 10%.
